Measurements from publication PMC11129975, “A first-in-human phase I study of TAS-117, an allosteric AKT inhibitor, in patients with advanced solid tumors” (Cancer Chemotherapy and Pharmacology, 2024).

Experiment: Phase I safety: adverse events, adverse drug reactions, DLTs in patients with advanced solid tumors
Type: in vivo, human
From the text: This was a phase I, open-label, non-randomized, dose-escalating first-in-human study to evaluate the safety, pharmacokinetics, antitumor activity, pharmacodynamics, and pharmacogenomics of TAS-117 in patients with advanced solid tumors. The study had three phases: a dose escalation phase (DEP), a regimen modification phase (RMP), and a safety assessment phase (SAP). The treatment cycle on each regimen lasted 21 days. The DEP used an accelerated titration and 3 + 3 design. TAS-117 was administered orally once daily (QD) on an empty stomach (1 h before or 2 h after a meal). Dosing was determined based on a 4-week repeated oral-dose toxicology study in monkeys (data on file, Taiho Pharmaceutical Co., Ltd.); the highest non-severely toxic dose was 1.2 mg/kg/day, which was converted to 3.84 mg/body/day, or 2.4 mg/m^2. Therefore, the starting dose was determined to be ≤ 2.4 mg/m^2. At dose level 1, TAS-117 was administered at 2 mg QD (Day − 2), and the dose was increased to 4 mg QD after 2 days (Day 1). The RMP was conducted according to a 3 + 3 design. During this phase, the dose regimen was changed from QD administration to intermittent dosing of daily TAS-117 with 4 days on/3 days off. TAS-117 was administered on an empty stomach. Dose-limiting toxicities (DLTs) were evaluated in Cycle 1 of the DEP and RMP. […] The RD and regimen for the SAP were determined based on the safety, pharmacokinetics, pharmacodynamics, and antitumor activity profile determined in the DEP and RMP. During the SAP, the safety and preliminary efficacy profiles of TAS-117 were assessed at the RD and recommended regimen. Three cohorts were included in this assessment. Cohort 1 included patients with endometrial cancer with a PIK3CA mutation; cohort 2 included patients with endometrial cancer with an AKT1 mutation, AKT1 amplification, or AKT2 amplification; and cohort 3 included patients with ovarian clear cell carcinoma.
The primary endpoints were the proportion of patients who experienced DLTs in Cycle 1 of the DEP and RMP and the incidence of adverse events (AEs) and adverse drug reactions (ADRs) in the SAP. AEs and ADRs were coded using the Medical Dictionary for Regulatory Activities (MedDRA; version 24.1) and graded according to the National Cancer Institute Common Terminology Criteria for Adverse Events (CTCAE; version 4.03). Secondary endpoints were pharmacokinetic findings, changes in the ratio of phosphorylated PRAS40 (pPRAS40)/total PRAS40 from baseline, efficacy, and pharmacogenomics findings.

In the case of `C[C@]1(O)C[C@@](N)(c2ccc(-c3nc4n(c3-c3ccccc3)COc3ccncc3-4)cc2)C1` [TAS-117], the “Grade 3 maculopapular rash with treatment interruption and/or dose reduction” value (RMP dose level 5 (32 mg), Cycle 1 and Cycle 2) was “two of three patients”, the “DLT (grade 3 maculopapular rash) during Cycle 1” value (RMP dose level 5 (32 mg), intermittent administration) was “one of the three patients” and the “Adverse drug reactions: ALT increased” value (RMP n = 10, All grade) was 0 (0.0) n (%). For the same compound, the “Adverse drug reactions: AST increased” value (RMP n = 10, All grade) was 1 (10.0) n (%), the “Adverse drug reactions: Any events” value (RMP n = 10, All grade) was 10 (100.0) n (%) and the “Adverse drug reactions: Blood AP increased” value (RMP n = 10, All grade) was 1 (10.0) n (%). For the same compound, the “Adverse drug reactions: Decreased appetite” value (RMP n = 10, All grade) was 5 (50.0) n (%), the “Adverse drug reactions: Diarrhea” value (RMP n = 10, All grade) was 2 (20.0) n (%) and the “Adverse drug reactions: Dry skin” value (RMP n = 10, All grade) was 1 (10.0) n (%). The “Adverse drug reactions: GGT increased” value (RMP n = 10, All grade) was 2 (20.0) n (%), the “Adverse drug reactions: GI disorders” value (RMP n = 10, All grade) was 8 (80.0) n (%) and the “Adverse drug reactions: General disorders and administration site conditions” value (RMP n = 10, All grade) was 5 (50.0) n (%). The “Adverse drug reactions: Hyperglycemia” value (RMP n = 10, All grade) was 3 (30.0) n (%), the “Adverse drug reactions: Investigations” value (RMP n = 10, All grade) was 6 (60.0) n (%) and the “Adverse drug reactions: Metabolism and nutrition disorders” value (RMP n = 10, All grade) was 5 (50.0) n (%). For the same compound, the “Adverse drug reactions: Nausea” value (RMP n = 10, All grade) was 3 (30.0) n (%), the “Adverse drug reactions: Neutrophil count decreased” value (RMP n = 10, All grade) was 3 (30.0) n (%) and the “Adverse drug reactions: Pruritus” value (RMP n = 10, All grade) was 4 (40.0) n (%). The “Adverse drug reactions: Pyrexia” value (RMP n = 10, All grade) was 4 (40.0) n (%), the “Adverse drug reactions: Rash maculo-papular” value (RMP n = 10, All grade) was 9 (90.0) n (%) and the “Adverse drug reactions: Skin and SC tissue disorders” value (RMP n = 10, All grade) was 9 (90.0) n (%). For the same compound, the “Adverse drug reactions: Stomatitis” value (RMP n = 10, All grade) was 8 (80.0) n (%), the “Adverse drug reactions: Vomiting” value (RMP n = 10, All grade) was 1 (10.0) n (%) and the “Adverse drug reactions: WBC count decreased” value (RMP n = 10, All grade) was 3 (30.0) n (%). For the same compound, the “Adverse events: ALT increased” value (RMP n = 10, All grade) was 1 (10.0) n (%), the “Adverse events: AST increased” value (RMP n = 10, All grade) was 2 (20.0) n (%) and the “Adverse events: Any events” value (RMP n = 10, All grade) was 10 (100.0) n (%). For the same compound, the “Adverse events: Blood AP increased” value (RMP n = 10, All grade) was 1 (10.0) n (%), the “Adverse events: Decreased appetite” value (RMP n = 10, All grade) was 7 (70.0) n (%) and the “Adverse events: Diarrhea” value (RMP n = 10, All grade) was 3 (30.0) n (%). The “Adverse events: Dry skin” value (RMP n = 10, All grade) was 1 (10.0) n (%), the “Adverse events: GGT increased” value (RMP n = 10, All grade) was 2 (20.0) n (%) and the “Adverse events: GI disorders” value (RMP n = 10, All grade) was 9 (90.0) n (%). The “Adverse events: General disorders and administration site conditions” value (RMP n = 10, All grade) was 9 (90.0) n (%), the “Adverse events: Hyperglycemia” value (RMP n = 10, All grade) was 3 (30.0) n (%) and the “Adverse events: Investigations” value (RMP n = 10, All grade) was 7 (70.0) n (%). For the same compound, the “Adverse events: Metabolism and nutrition disorders” value (RMP n = 10, All grade) was 7 (70.0) n (%), the “Adverse events: Nausea” value (RMP n = 10, All grade) was 4 (40.0) n (%) and the “Adverse events: Neutrophil count decreased” value (RMP n = 10, All grade) was 3 (30.0) n (%). For the same compound, the “Adverse events: Pruritus” value (RMP n = 10, All grade) was 4 (40.0) n (%), the “Adverse events: Pyrexia” value (RMP n = 10, All grade) was 6 (60.0) n (%) and the “Adverse events: Rash maculo-papular” value (RMP n = 10, All grade) was 9 (90.0) n (%). For the same compound, the “Adverse events: Skin and SC tissue disorders” value (RMP n = 10, All grade) was 9 (90.0) n (%), the “Adverse events: Stomatitis” value (RMP n = 10, All grade) was 8 (80.0) n (%) and the “Adverse events: Vomiting” value (RMP n = 10, All grade) was 2 (20.0) n (%). For the same compound, the “Adverse events: WBC count decreased” value (RMP n = 10, All grade) was 3 (30.0) n (%), the “Adverse drug reactions: ALT increased” value (RMP n = 10, ≥ Grade 3) was 0 (0.0) n (%) and the “Adverse drug reactions: AST increased” value (RMP n = 10, ≥ Grade 3) was 0 (0.0) n (%). The “Adverse drug reactions: Any events” value (RMP n = 10, ≥ Grade 3) was 6 (60.0) n (%), the “Adverse drug reactions: Blood AP increased” value (RMP n = 10, ≥ Grade 3) was 0 (0.0) n (%) and the “Adverse drug reactions: Decreased appetite” value (RMP n = 10, ≥ Grade 3) was 0 (0.0) n (%). The “Adverse drug reactions: Diarrhea” value (RMP n = 10, ≥ Grade 3) was 0 (0.0) n (%), the “Adverse drug reactions: Dry skin” value (RMP n = 10, ≥ Grade 3) was 0 (0.0) n (%) and the “Adverse drug reactions: GGT increased” value (RMP n = 10, ≥ Grade 3) was 1 (10.0) n (%). The “Adverse drug reactions: GI disorders” value (RMP n = 10, ≥ Grade 3) was 0 (0.0) n (%), the “Adverse drug reactions: General disorders and administration site conditions” value (RMP n = 10, ≥ Grade 3) was 0 (0.0) n (%) and the “Adverse drug reactions: Hyperglycemia” value (RMP n = 10, ≥ Grade 3) was 2 (20.0) n (%). The “Adverse drug reactions: Investigations” value (RMP n = 10, ≥ Grade 3) was 3 (30.0) n (%), the “Adverse drug reactions: Metabolism and nutrition disorders” value (RMP n = 10, ≥ Grade 3) was 2 (20.0) n (%) and the “Adverse drug reactions: Nausea” value (RMP n = 10, ≥ Grade 3) was 0 (0.0) n (%). For the same compound, the “Adverse drug reactions: Neutrophil count decreased” value (RMP n = 10, ≥ Grade 3) was 0 (0.0) n (%), the “Adverse drug reactions: Pruritus” value (RMP n = 10, ≥ Grade 3) was 0 (0.0) n (%) and the “Adverse drug reactions: Pyrexia” value (RMP n = 10, ≥ Grade 3) was 0 (0.0) n (%). The “Adverse drug reactions: Rash maculo-papular” value (RMP n = 10, ≥ Grade 3) was 3 (30.0) n (%), the “Adverse drug reactions: Skin and SC tissue disorders” value (RMP n = 10, ≥ Grade 3) was 3 (30.0) n (%) and the “Adverse drug reactions: Stomatitis” value (RMP n = 10, ≥ Grade 3) was 0 (0.0) n (%). For the same compound, the “Adverse drug reactions: Vomiting” value (RMP n = 10, ≥ Grade 3) was 0 (0.0) n (%), the “Adverse drug reactions: WBC count decreased” value (RMP n = 10, ≥ Grade 3) was 2 (20.0) n (%) and the “Adverse events: ALT increased” value (RMP n = 10, ≥ Grade 3) was 0 (0.0) n (%). For the same compound, the “Adverse events: AST increased” value (RMP n = 10, ≥ Grade 3) was 0 (0.0) n (%), the “Adverse events: Any events” value (RMP n = 10, ≥ Grade 3) was 7 (70.0) n (%) and the “Adverse events: Blood AP increased” value (RMP n = 10, ≥ Grade 3) was 0 (0.0) n (%). The “Adverse events: Decreased appetite” value (RMP n = 10, ≥ Grade 3) was 0 (0.0) n (%), the “Adverse events: Diarrhea” value (RMP n = 10, ≥ Grade 3) was 1 (10.0) n (%) and the “Adverse events: Dry skin” value (RMP n = 10, ≥ Grade 3) was 0 (0.0) n (%). For the same compound, the “Adverse events: GGT increased” value (RMP n = 10, ≥ Grade 3) was 1 (10.0) n (%), the “Adverse events: GI disorders” value (RMP n = 10, ≥ Grade 3) was 2 (20.0) n (%) and the “Adverse events: General disorders and administration site conditions” value (RMP n = 10, ≥ Grade 3) was 0 (0.0) n (%). The “Adverse events: Hyperglycemia” value (RMP n = 10, ≥ Grade 3) was 2 (20.0) n (%), the “Adverse events: Investigations” value (RMP n = 10, ≥ Grade 3) was 3 (30.0) n (%) and the “Adverse events: Metabolism and nutrition disorders” value (RMP n = 10, ≥ Grade 3) was 2 (20.0) n (%). The “Adverse events: Nausea” value (RMP n = 10, ≥ Grade 3) was 0 (0.0) n (%), the “Adverse events: Neutrophil count decreased” value (RMP n = 10, ≥ Grade 3) was 0 (0.0) n (%) and the “Adverse events: Pruritus” value (RMP n = 10, ≥ Grade 3) was 0 (0.0) n (%). The “Adverse events: Pyrexia” value (RMP n = 10, ≥ Grade 3) was 0 (0.0) n (%), the “Adverse events: Rash maculo-papular” value (RMP n = 10, ≥ Grade 3) was 3 (30.0) n (%) and the “Adverse events: Skin and SC tissue disorders” value (RMP n = 10, ≥ Grade 3) was 3 (30.0) n (%). For the same compound, the “Adverse events: Stomatitis” value (RMP n = 10, ≥ Grade 3) was 0 (0.0) n (%), the “Adverse events: Vomiting” value (RMP n = 10, ≥ Grade 3) was 0 (0.0) n (%) and the “Adverse events: WBC count decreased” value (RMP n = 10, ≥ Grade 3) was 2 (20.0) n (%). The “Adverse drug reactions: ALT increased” value (SAP n = 43, All grade) was 6 (14.0) n (%).
